Reference: paper PMC6273746, “Molecular Mechanism of the Flavonoid Natural Product Dryocrassin ABBA against Staphylococcus aureus Sortase A” (Molecules, 2016)
pKd: −log10 of the molar value.

Key:
Assay type in all cases: binding
[1] = target: T1, sortase A (SrtA), WT-SrtA (Staphylococcus aureus, UniProt Q2FV99); assay: fluorescence quenching (KA); also FRET inhibition of purified SrtA, IC50 […]
T1 construct: SrtA△N59, recombinant, GST tag cleaved

[2] = target: T2, sortase A (SrtA), V168A-SrtA (Staphylococcus aureus, UniProt Q2FV99, V168A); assay: fluorescence quenching (KA); reduced inhibition versus WT in FRET assay at […]
T2 construct: SrtA△N59, recombinant, GST tag cleaved

[3] = target: T3, sortase A (SrtA), V166A-SrtA (Staphylococcus aureus, UniProt Q2FV99, V166A); assay: as above
T3 construct: SrtA△N59, recombinant, GST tag cleaved

CCCC(=O)c1c(O)c(CC2=C(O)C(C)(C)C(=O)C(C(C)=O)=C2O)c(O)c(Cc2c(O)c(CC3=C(O)C(C)(C)C(=O)C(C(C)=O)=C3O)c(O)c(C(=O)CCC)c2O)c1O [ABBA, dryocrassin ABBA]
pKd [1]: 5.66
pKd [2]: 5.55
pKd [3]: 5.64
